The source of these data is PMC9184620, “TAS1553, a small molecule subunit interaction inhibitor of ribonucleotide reductase, exhibits antitumor activity by causing DNA replication stress” (Communications Biology, 2022).

This assay has as its target T1, RNR (R1 and R2 recombinant proteins) (Homo sapiens, UniProt P23921).
T1 construct: made in house; host or cells: Escherichia coli
T1 sequence (P23921 1-792): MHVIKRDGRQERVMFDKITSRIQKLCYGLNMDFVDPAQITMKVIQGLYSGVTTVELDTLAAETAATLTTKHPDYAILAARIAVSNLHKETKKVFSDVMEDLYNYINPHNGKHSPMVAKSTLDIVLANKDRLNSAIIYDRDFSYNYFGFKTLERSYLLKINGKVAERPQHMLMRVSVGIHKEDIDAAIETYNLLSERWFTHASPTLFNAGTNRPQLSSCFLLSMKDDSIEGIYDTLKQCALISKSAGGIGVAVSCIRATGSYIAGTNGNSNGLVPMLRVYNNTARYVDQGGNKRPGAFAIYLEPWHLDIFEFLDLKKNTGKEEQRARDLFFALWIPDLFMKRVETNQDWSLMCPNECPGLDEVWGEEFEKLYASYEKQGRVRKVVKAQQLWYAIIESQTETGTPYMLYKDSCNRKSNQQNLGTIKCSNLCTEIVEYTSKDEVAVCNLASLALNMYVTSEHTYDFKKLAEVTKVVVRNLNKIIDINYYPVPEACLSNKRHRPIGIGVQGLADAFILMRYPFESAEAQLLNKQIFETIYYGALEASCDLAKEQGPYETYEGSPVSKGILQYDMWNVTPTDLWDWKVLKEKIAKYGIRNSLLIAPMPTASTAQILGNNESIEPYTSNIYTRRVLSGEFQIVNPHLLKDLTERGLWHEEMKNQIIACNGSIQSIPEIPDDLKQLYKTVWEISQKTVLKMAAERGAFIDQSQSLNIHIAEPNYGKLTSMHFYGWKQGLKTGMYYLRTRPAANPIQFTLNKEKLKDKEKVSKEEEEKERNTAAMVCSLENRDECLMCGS
Briefly: RNR assay (formation of dCDP from CDP). It is filed as biochemical. Conditions: CDP to dCDP; mean ± SD; read-out: Enzyme IC50. The protocol:
The binding affinity of TAS1553 to the R1 subunit was investigated using surface plasmon resonance (SPR) binding analysis. […] Next, we evaluated the inhibitory effect of TAS1553 against the enzymatic activity of RNR, consisting of R1 and R2 recombinant proteins. RNR activity was determined by its ability to reduce cytidine diphosphate (CDP) to deoxycytidine diphosphate (dCDP), based on a previous report. […] In addition to the inhibitory effect on RNR, TAS1553 was evaluated in a Eurofins LeadProfilingScreen panel assay including 68 proteins, such as ion channels, transporters, nuclear receptors, and G protein-coupled receptors, to examine its potential adverse activity.
The inhibition of RNR activity by the test compound was evaluated by measuring the formation of dCDP from CDP, as reported previously. The assay was performed for 30 min at 37 °C in a reaction mixture composed of 50 mmol/L HEPES, 4 mmol/L magnesium acetate, 100 mmol/L KCl, 6 mmol/L DTT, 2 mmol/L ATP, 0.24 mmol/L NADPH, 10.0 µmol/L CDP, 0.1 mg/mL BSA, 8.0 µg/mL His-R1, 2.4 µg/mL His-R2, and 1% DMSO with or without test compound. The reaction was discontinued by heat treatment at 95 °C for 5 min. The amount of dCDP after the reaction was quantified by a prominence HPLC system and LabSolutions software (SHIMADZU CORPORATION). Separations were performed at 265 nm in a Shim-pack XR-ODS column of particle size 2.2 μm (100 × 3.0 mm, SHIMADZU GLC Ltd.). Overall, 5 µL of each sample was injected, and chromatography was performed at 40 °C. Mobile A was composed of 10 mmol/L potassium dihydrogenphosphate, 10 mmol/L tetrabutylammonium hydroxide, 0.25% methanol and 8 mmol/L HCl. Mobile B was composed of 50 mmol/L potassium dihydrogenphosphate, 5.6 mmol/L tetrabutylammonium hydroxide, and 30% methanol. The gradient was as follows: 52–60% B for 9 min, 60–99% B for 1 min, 99% B for 5 min, 99–52% B for 1 min, and 52% B for 5 min. The flow rate was 0.5 mL/min. The experiment was performed in triplicates. IC50 values were calculated using the SAS software package.

As a reminder, the IC50 is the concentration that gives 50% inhibition. For the molecule `Cc1ccc(F)c([C@@H](C)[C@H](NS(=O)(=O)c2ccc(Cl)cc2C(N)=O)c2n[nH]c(=O)o2)c1C` [TAS1553, 5-chloro-2-{N-[(1S,2R)-2-(6-fluoro-2,3-dimethylphenyl)-1-(5-oxo-4,5-dihydro-1,3,4-oxadiazol-2-yl)propyl]sulfamoyl}benzamide], the IC50 is 54.2 ± 6.1 nM.
